In paper PMC9268153 (2022) one finds binding, ΔTm and Ka data, which are given here for three compounds.

In assay [1] the test system is c-kit (DNA, G4) AGGGAGGGCGCTGGGAGGAGGG
Nature of the assay: CD spectral change. Particulars: 100 mM KCl; 50 mM Tris-HCl pH 7.4, 25 °C; 1.5 μM DNA, up to 4.5 μM compound.

Assay [2] concerns Telomere G1 (Telomere G4) (DNA, G4) TAGGGTTAGGGTTAGGGTTAGGG
Briefly: CD melting. Particulars: 100 mM KCl; 50 mM Tris-HCl pH 7.4; 4.5 μM compound, 1.5 μM nucleic acid.

The test system of assay [3] is G1-r23nt (RNA, G4) UAGGGUUAGGGUUAGGGUUAGGG
Nature of the assay: CD melting. Particulars: 5 mM KCl; 50 mM Tris-HCl pH 7.4; 4.5 μM compound, 1.5 μM nucleic acid.

Assay [4] deals with Telomere G1 (Telomere G4) (DNA, G4) TAGGGTTAGGGTTAGGGTTAGGG
Nature of the assay: UV-Vis titration, Scatchard. Particulars: 100 mM KCl; 50 mM Tris-HCl pH 7.4, 25 °C.

The subject of assay [5] is ds-oligo (DNA, duplex) GGGAGGTTTCGC/GCGAAACCTCCC
Briefly: UV-Vis titration, Scatchard. Particulars: 100 mM KCl; 50 mM Tris-HCl pH 7.4, 25 °C.

Assay [6] deals with c-myc AP sites (DNA, G4, abasic (d-spacer) at 7 and 16) TGAGGGNGGGGAGGGNGGGGAA
Briefly: ITC. Particulars: 50 mM potassium phosphate (K+); 50 mM KH2PO4-K2HPO4 pH 7.0, 25 °C.

Assay [7] concerns G1-r12nt (RNA, G4) UAGGGUUAGGGU
Briefly: CD melting. Particulars: 100 mM KCl; 50 mM KH2PO4-K2HPO4 pH 7.0; 4.5 μM compound, 1.5 μM nucleic acid.

Assay [8] has as its system Telomere G1 (Telomere G4) (DNA, G4) TAGGGTTAGGGTTAGGGTTAGGG
Briefly: ITC. The conditions noted are these: 50 mM potassium phosphate (K+), 50 mM KH2PO4-K2HPO4 pH 7.0, 25 °C; for binding: n.d. (not detected), titrant up to 100 μM.

Assay [9] has as its system G1-r23nt (RNA, G4) UAGGGUUAGGGUUAGGGUUAGGG
Nature of the assay: ITC. Particulars: 50 mM potassium phosphate (K+); 50 mM KH2PO4-K2HPO4 pH 7.0, 25 °C.

In assay [10] the test system is G1-r12nt (RNA, G4) UAGGGUUAGGGU
Nature of the assay: ITC. The conditions noted are these: 50 mM potassium phosphate (K+); 50 mM KH2PO4-K2HPO4 pH 7.0, 25 °C.

Assay [11] relates to ds-oligo (DNA, duplex) GGGAGGTTTCGC/GCGAAACCTCCC
Briefly: ITC. The conditions noted are these: 50 mM potassium phosphate (K+); 50 mM KH2PO4-K2HPO4 pH 7.0, 25 °C; undetectable.

Each structure is given as a SMILES string. Bounds are passed on as bounds.

The term ΔTm denotes the change in melting temperature against a reference sample. In the case of `CN(C)CCCN1C(=O)c2ccc3c4c(ccc(c24)C1=O)C(=O)N(CCCN(C)C)C3=O`, in assay [1], the binding result was “yes”. The values for the shift in melting temperature (ΔTm) in assay [2], in assay [3] and in assay [7] were 5.1 ± 1.1 °C, 19.9 ± 0.1 °C and 6.1 ± 0.4 °C, respectively. Also, the Ka is recorded as 9.5 ± 0.9 × 10^5 M^-1 in assay [4], 3.9 ± 0.1 × 10^5 M^-1 in [5], 2.9 ± 0.2 × 10^5 M^-1 in assay [6] and 9.5 ± 0.6 × 10^5 M^-1 in assay [8].

On to `CN(CCCN1C(=O)c2ccc3c4c(ccc(c24)C1=O)C(=O)N(CCCN(C)C[C@H]1O[C@@H]2O[C@H]4[C@H](O)[C@@H](O)[C@@H](O[C@H]5[C@H](O)[C@@H](O)[C@@H](O[C@H]6[C@H](O)[C@@H](O)[C@@H](O[C@H]7[C@H](O)[C@@H](O)[C@@H](O[C@H]8[C@H](O)[C@@H](O)[C@@H](O[C@H]9[C@H](O)[C@@H](O)[C@@H](O[C@H]1[C@H](O)[C@H]2O)O[C@@H]9CO)O[C@@H]8CO)O[C@@H]7CO)O[C@@H]6CO)O[C@@H]5CO)O[C@@H]4CO)C3=O)C[C@H]1O[C@@H]2O[C@H]3[C@H](O)[C@@H](O)[C@@H](O[C@H]4[C@H](O)[C@@H](O)[C@@H](O[C@H]5[C@H](O)[C@@H](O)[C@@H](O[C@H]6[C@H](O)[C@@H](O)[C@@H](O[C@H]7[C@H](O)[C@@H](O)[C@@H](O[C@H]8[C@H](O)[C@@H](O)[C@@H](O[C@H]1[C@H](O)[C@H]2O)O[C@@H]8CO)O[C@@H]7CO)O[C@@H]6CO)O[C@@H]5CO)O[C@@H]4CO)O[C@@H]3CO`, for which the results for the ΔTm in assay [2], in assay [3] and in [7] were < 0.5 °C, 10.3 ± 0.3 °C and 2.1 ± 0.9 °C, respectively. Moreover, the Ka in assay [9] is reported as 19.0 ± 2.2 × 10^5 M^-1; in assay [6], 2.2 ± 0.3 × 10^5 M^-1. The binding entry in assay [10] is listed as “yes”; in assay [8], “no”; in assay [11], “no”.

Regarding `O=C(CN1C(=O)c2ccc3c4c(ccc(c24)C1=O)C(=O)N(CC(=O)NCCNC[C@H]1O[C@@H]2O[C@H]4[C@H](O)[C@@H](O)[C@@H](O[C@H]5[C@H](O)[C@@H](O)[C@@H](O[C@H]6[C@H](O)[C@@H](O)[C@@H](O[C@H]7[C@H](O)[C@@H](O)[C@@H](O[C@H]8[C@H](O)[C@@H](O)[C@@H](O[C@H]9[C@H](O)[C@@H](O)[C@@H](O[C@H]1[C@H](O)[C@H]2O)O[C@@H]9CO)O[C@@H]8CO)O[C@@H]7CO)O[C@@H]6CO)O[C@@H]5CO)O[C@@H]4CO)C3=O)NCCNC[C@H]1O[C@@H]2O[C@H]3[C@H](O)[C@@H](O)[C@@H](O[C@H]4[C@H](O)[C@@H](O)[C@@H](O[C@H]5[C@H](O)[C@@H](O)[C@@H](O[C@H]6[C@H](O)[C@@H](O)[C@@H](O[C@H]7[C@H](O)[C@@H](O)[C@@H](O[C@H]8[C@H](O)[C@@H](O)[C@@H](O[C@H]1[C@H](O)[C@H]2O)O[C@@H]8CO)O[C@@H]7CO)O[C@@H]6CO)O[C@@H]5CO)O[C@@H]4CO)O[C@@H]3CO`, the results for the ΔTm in assay [2], in assay [3] and in [7] were < 0.5 °C, 10.6 ± 0.6 °C and < 0.5 °C, respectively. The Ka in [9] was 12.3 ± 2.2 × 10^5 M^-1; in assay [6], 2.0 ± 0.8 × 10^5 M^-1. Further, the results for the binding entry in assay [10], in assay [8] and in assay [11] were “yes”, “no” and “no”, respectively.
